According to US5808124A, “O- or S-substituted dihydronaphthalene derivatives having retinoid and/or retinoid antagonist-like biological activity” (Allergan, priority 1996, dated 1998):

System: ornithine decarboxylase (ODC)
Experiment: ODC assay: inhibition of TPA induction of ornithine decarboxylase (ODC) activity
Format: biochemical
Settings: for IC80: 80% inhibition in the ODC assay (TPA induction), printed in the IC60 column marked (IC80); for IC60: 60% inhibition in the ODC assay (TPA induction)
Excerpt: A classic measure of retinoic acid activity involves measuring the effects of retinoic acid on ornithine decarboxylase. The original work on the correlation between retinoic acid and decrease in cell proliferation was done by Verma & Boutwell, Cancer Research, 1977, 37,2196-2201. That reference discloses that ornithine decarboxylase (ODC) activity increased precedent to polyamine biosynthesis. It has been established elsewhere that increases in polyamine synthesis can be correlated or associated with cellular proliferation. Thus, if ODC activity could be inhibited, cell hyperproliferation could be modulated. Although all cases for ODC activity increases are unknown, it is known that 12-0-tetradecanoylphorbol-13-acetate (TPA) induces ODC activity. Retinoic acid inhibits this induction of ODC activity by TPA. […] Activity of exemplary compounds of the present invention in the above-described ODC assay is disclosed in Table 1 which provides the IC60 concentration for the respective exemplary compound. ("IC60 " is that concentration of the test compound which causes 60% inhibition in the ODC assay. By analogy, "IC80, for example, is that concentration of the test compound which causes 80% inhibition in the ODC assay.)

| SMILES | IC80 | IC60 |
| --- | --- | --- |
| CC1(C)CC=C(c2cccs2)c2ccc(C(=O)/C=C/c3ccc(C(=O)O)cc3)cc21 [Compound D34, 4-[3-oxo-3-(7,8-dihydro-5-(2-thienyl)-8.8-dimethyl-2-naphthalenyl) - 1-propenyl]-benzoic acid] | 4.3 nmols |  |
| CCOC(=O)c1ccc(/C=C/c2ccc3c(c2)C(Sc2ccccc2)=CCC3(C)C)cc1 [Compound A16, ethyl (E)-4-[2-(5,6-dihydro-5,5-dimethyl-8-(phenylthio)-naphthalen-2-yl)ethenyl]benzoate] | 4.3 nmols |  |
| CCOC(=O)c1ccc(/N=N/c2ccc3c(c2)C(OCOC)CCC3(C)C)cc1 (racemic) [Compound D6, (+/-) ethyl 4-[(5,5-dimethyl-8-(methoxymethyloxy)-5,6,7,8-tetrahydronaphthalen-2-yl)azo]benzoate] |  | 1.9 nmols |
| CCO/N=C1\CCC(C)(C)c2ccc(/C=C/c3ccc(C(=O)OCC)cc3)cc21 [Compound A5, ethyl (E)-4-[2-(5,5-dimethyl-5,6-dihydro-8(7H)-anti-(O-ethyl oxime)-naphthalen-2-yl)ethenyl]-benzoate] |  | 10.3 nmols |
| CCOC(=O)c1ccc(/C=C/c2ccc3c(c2)C2(CCC3(C)C)SCCCS2)cc1 [Compound A23] |  | 43.7 nmols |
| CCO/N=C1\CCC(C)(C)c2ccc(/C(C)=C/C=C/C(C)=C/C(=O)OCC)cc21 [Compound C22b, Ethyl 7-[4,4-dimethyl-3,4-dihydro-1(2H)-anti-(O-ethyl oxime)-naphth-7-yl]3,7-dimethyl-hepta-2(E),4(E),6(E)-trienoate] |  | 10 nmols |
